# Tests used:
# [1] = Ascorbate depletion assay, CuSO4-sponsored oxidation, recycling of DHA; settings: CuSO4 model
# Protocol: The kinetics of ascorbate oxidation, sponsored by both 1 μM 9,10-PQ and 2 μM copper sulphate (CuSO4), was examined using the ascorbate depletion assay (Kelly et al, Res. Rep. Health Eff. Inst., 163, 3 (2011). 9,10-PQ was employed so that the action of NBMI could be examined in isolation of its chelation properties.
# All experiments were performed in triplicate in UV 96 well flat-bottomed plates (Greiner bio-one) at a final volume of 200 μL. Exposures were initiated by the addition of 20 μL of a concentrated stock of ascorbate (2 mM) into each well containing 160 μL of Chelex-100 resin treated water (containing 10% DMSO), plus either 10 μL of water, CuSO4 stock solution at 4 mM or 9,10-PQ stock solution at 2 mM, and 10 μL of NMBI (4 mM and […]).
# All solutions were prepared in Chelex-100 resin treated water (containing 10% DMSO). This yielded final concentrations in the wells of […], 2 μM CuSO4, or 1 μM 9,10-PQ and between 10 and 200 μM of NBMI.
# Immediately prior to the addition of the ascorbate to each assay well, the plate was pre-incubated for 10 minutes at 37° C. in a plate reader (Spectra Max 190). During the exposure, the plate was maintained at this temperature. After addition of ascorbate, the concentration remaining in each well was monitored every 2 minutes for a period of two hours by measuring the absorbance at 265 nm. The ascorbate concentration was determined with reference to a standard curve, with the rate of ascorbate oxidation determined by performing a linear regression through the initial part of a concentration verses time plot using Microcal Software Limited's OriginLab (version 5.0). This was performed for each of the triplicates and the rate of ascorbate depletion was finally expressed as mean mol s 1×10^−9 depletion of ascorbate±standard deviation.
# For the experiments in which the impact of adding NBMI to the ascorbate was measured, CuSO4 and 9,10-PQ depletion assays were examined later in the time course. The plates were ran with 190 μL only for the first 55-60 minutes, after which they were removed from the plate reader and 10 μL of either the NMBI or the known reducing agent, DTT stock solution, or water was added to each well. The plate was then returned to the plate reader and the absorbance at 265 nm monitored for a further 60 minutes.
# The immediate increase in the measured ascorbate concentrations was determined and is referred to as the ‘jump’, as a measure of immediate recycling capacity. The sustained ‘increase’ over the remaining 60 minutes of the incubation was also determined.
# COPD = assay: Treatment of patient with COPD; format: in vivo, human
# Protocol: A retired person residing in the USA, who had been medically diagnosed with COPD several years earlier, regularly experienced coughing fits two to four times in any 24 hour period, beginning at any hour of the day or night and lasting from about 40 to 75 minutes. As a consequence of these coughing fits, the patient's breathing was shallow, their throat irritated, their voice was raspy, their energy levels very low and their quality of life very poor.
# [2] = by the eighth day, 100 mg capsule three times daily
smiles,measurement,setting,value
"O=C(NCCS)c1cccc(C(=O)NCCS)c1 [NBMI, N,N-bis-2-mercaptoethyl isophthalamide]",immediate 'jump' in ascorbate concentration,[1]; 200 μM added at 60 minutes,24.98 ± 5.54 µM
same,sustained 'increase' in ascorbate over remaining 60 minutes,[1]; 200 μM added at 60 minutes,25.45 ± 2.45 µM
same,subsequent rate of oxidation after addition,"[1]; addition at 10, 20 and 30 minutes",quenched
same,symptoms of COPD,"COPD; 100 mg capsule three times daily for eight days, one patient",marked improvement in symptoms
same,breathing,COPD; [2],significantly improved breathing
same,coughing fits,COPD; [2],no coughing fits

# — patent US9782368B2, “Use of N,N-bis-2-mercaptoethyl isophthalamide” (EMERAMED LIMITED, priority 2014, dated 2017)
